From patent publication US12018023B2 (NERVIANO MEDICAL SCIENCES S.R.L., priority 2018, dated 2024)
pIC50: −log10 of the molar value.

How the values were obtained:
IDH1^R132C = biological target: T1, IDH1^R132C (Homo sapiens, UniProt O75874, R132C); test: NADPH depletion assay, IDH1 R132C; type: biochemical
T1 construct: purchased not specified
How it was run: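 IDH1 R132C (2 nM) preincubated 15 min at RT with compound in Tris-HCl pH 7.6/MgCl2 buffer, then 60 min RT with NADPH and 0.14 mM alpha-ketoglutarate. Remaining NADPH read by diaphorase/resazurin fluorescence (Ex544/Em590).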

[1] = biological target: T2, IDH1^R132H homodimer enzyme (Homo sapiens, UniProt O75874, R132H); test: NADPH depletion assay, IDH1 R132H; type: biochemical
T2 construct: purchased not specified
T2 sequence (O75874 whole entry R132H): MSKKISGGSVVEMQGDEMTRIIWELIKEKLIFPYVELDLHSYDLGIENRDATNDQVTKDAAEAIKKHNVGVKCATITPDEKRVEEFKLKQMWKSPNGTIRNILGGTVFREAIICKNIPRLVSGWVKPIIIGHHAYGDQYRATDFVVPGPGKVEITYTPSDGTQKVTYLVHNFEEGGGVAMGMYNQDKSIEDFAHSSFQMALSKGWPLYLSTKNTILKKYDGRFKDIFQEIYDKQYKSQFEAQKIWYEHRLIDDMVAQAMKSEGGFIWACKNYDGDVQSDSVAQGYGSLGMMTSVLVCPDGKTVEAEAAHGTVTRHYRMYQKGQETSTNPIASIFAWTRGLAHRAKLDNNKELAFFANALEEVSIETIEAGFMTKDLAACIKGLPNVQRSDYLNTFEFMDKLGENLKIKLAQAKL
How it was run: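 IDH1 R132H enzyme (8 nM as diluted) in Tris-HCl pH 7.6 with 10 mM MgCl2, 0.001% Triton X-100 and 4 mM β-mercaptoethanol is preincubated 15 min at RT with compound. Substrate mix (12 uM NADPH, 3.4 mM α-ketoglutarate) is added for 60 min; remaining NAD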

HT-1080 (IDH1^R132C) = test: Cellular 2-HG production assay, HT-1080; type: cell-based; conditions: Homo sapiens, HT-1080, 72 h, inhibition of 2HG production, 72 hr incubation, LC-MS/MS; read-out: HT1080 2-HG IC50
How it was run: (§1)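 Cells in E-MEM/10% FCS (G418 500 μg/mL for the transfected U87-MG line) at 500 per well got compound 24 h after seeding and were incubated 72 h at 37 °C. Medium 2-HG was measured by LC-MS/MS with 2-HG-d3 internal standard; IC50 came from sigmoidal fitting versus controls.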

U87MG_IDH1R132H = test: Cellular 2-HG production assay, U87-MG-IDH1 R132H; type: cell-based; conditions: inhibition of 2HG production, 72 hr incubation, LC-MS/MS
How it was run: as §1

IDH2^R172K = biological target: T3, IDH2^R172K (Homo sapiens, UniProt P48735, R172K); test: NADPH depletion assay, IDH2 R172K; type: biochemical
T3 construct: purchased not specified
T3 sequence (P48735 40-452 R172K): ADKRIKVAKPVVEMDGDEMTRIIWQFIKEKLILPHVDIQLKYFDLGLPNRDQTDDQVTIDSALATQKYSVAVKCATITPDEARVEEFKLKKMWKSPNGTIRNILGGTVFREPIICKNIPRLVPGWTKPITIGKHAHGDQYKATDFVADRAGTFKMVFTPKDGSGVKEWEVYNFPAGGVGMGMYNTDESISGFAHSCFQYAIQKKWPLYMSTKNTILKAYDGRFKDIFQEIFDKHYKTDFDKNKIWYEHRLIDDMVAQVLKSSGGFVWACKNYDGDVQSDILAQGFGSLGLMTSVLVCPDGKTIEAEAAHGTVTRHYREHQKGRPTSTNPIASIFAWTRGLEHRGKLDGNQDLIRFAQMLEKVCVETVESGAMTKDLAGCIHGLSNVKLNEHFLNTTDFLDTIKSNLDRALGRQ
How it was run: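 IDH2 R172K (16 nM) was preincubated 15 min at RT with compound (1:3 series from 1 mM in DMSO) in Tris pH 7.6/NaCl/MgCl2/Triton/β-mercaptoethanol. The reaction ran 60 min at RT with 0.55 mM alpha-ketoglutarate and NADPH (12 μM in the substrate mix). Remaining NADPH was read with diaphorase/resazurin fluorescence at Ex544/Em590.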

IDH1WT enzyme = biological target: T4, IDH1WT enzyme (Homo sapiens, UniProt O75874); test: Enzymatic assay for IDH1 wild-type (NADPH forming assay); type: biochemical
T4 construct: purchased not specified
T4 sequence (O75874 whole entry): as the sequence (O75874 whole entry R132H) above, with H132R counted along it
How it was run: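 Compounds (10-point 1:3 series from 1 mM in DMSO stock) preincubated 15 min at RT with 0.016 nM enzyme in Tris-HCl pH 7.6, NaCl, MgCl2, Triton X-100, β-mercaptoethanol. Started with 400 μM NADP+, 40 μM isocitrate, diaphorase, 7 μM resazurin (Substrate Mix concentrations); resorufin fluorescence Ex544/Em590 read continuously.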

T1 sequence (O75874 whole entry R132C): as the sequence (O75874 whole entry R132H) above, with H132C counted along it

| pIC50 (IDH1^R132C) | pIC50 [1] | pIC50 (HT-1080 (IDH1^R132C)) | pIC50 (U87MG_IDH1R132H) | pIC50 (IDH2^R172K) | pIC50 (IDH1WT enzyme) | SMILES |
| --- | --- | --- | --- | --- | --- | --- |
| 8.30 | 8.15 | 8.85 | 9.40 | 7.31 | 6.96 | C=CC(=O)N1CCN([C@@H](CC)c2ccc([C@H](C)Nc3ncc4ccc(=O)n(C(C)C)c4n3)cc2)CC1 [cpd 227, 2-{[(1S)-1-{4-[(1S)-1-(4-acryloylpiperazin-1-yl)propyl]phenyl}ethyl]amino}-8-(propan-2-yl)pyrido[2,3-d]pyrimidin-7(8H)-one] |
| 7.36 | 7.08 | 7.70 | 7.89 | 6.41 | 6.08 | C=CC(=O)N1CCN(C(CC)c2ccc([C@@H](C)Nc3ncc4ccc(=O)n(C(C)C)c4n3)cc2)CC1 (stereo in doubt) [cpd 229, 2-{[(1R)-1-{4-[(1R)-1-(4-acryloylpiperazin-1-yl)propyl]phenyl}ethyl]amino}-8-(propan-2-yl)pyrido[2,3-d]pyrimidin-7(8H)-one] |
| 8.70 | 8.70 | 9.10 | 9.22 | 7.60 | 7.56 | C=CC(=O)N1CCN([C@H](CC)c2ccc([C@H](C)Nc3ncc4ccc(=O)n(C(C)C)c4n3)cc2)CC1 [cpd 228, 2-{[(1S)-1-{4-[(1R)-1-(4-acryloylpiperazin-1-yl)propyl]phenyl}ethyl]amino}-8-(propan-2-yl)pyrido[2,3-d]pyrimidin-7(8H)-one] |
| 9.00 | 9.00 | 9.40 | 9.40 | 7.96 | 7.41 | C=CC(=O)N1CCN([C@@H](CC2CC2)c2ccc([C@H](C)Nc3ncc4ccc(=O)n(C(C)C)c4n3)cc2)CC1 [cpd 230, 2-{[(1S)-1-{4-[(1S)-1-(4-acryloylpiperazin-1-yl)-2-cyclopropylethyl]phenyl}ethyl]amino}-8-(propan-2-yl) pyrido [2,3-d]pyrimidin-7(8H)-one] |

Further lines, the compound ahead of its results:

| SMILES | pIC50 (IDH1^R132C) | pIC50 [1] | pIC50 (HT-1080 (IDH1^R132C)) | pIC50 (U87MG_IDH1R132H) | pIC50 (IDH2^R172K) | pIC50 (IDH1WT enzyme) |
| --- | --- | --- | --- | --- | --- | --- |
| C[C@H](Nc1ncc2ccc(=O)n(CC(C)(C)C)c2n1)c1ccc(CN2CCCC(F)(F)C2)cc1 [cpd 117, 2-{[(1S)-1-{4-[(3,3-difluoropiperidin-1-yl)methyl]phenyl}ethyl]amino}-8-(2,2-dimethylpropyl)pyrido[2,3-d]pyrimidin-7(8H)-one] | 7.54 | 7.26 | 6.81 | 6.75 | 5.26 | 5.80 |
| C=CC(=O)N1CCN(Cc2ccc([C@H](C)Nc3ncc4ccc(=O)n(CC(C)(C)CO)c4n3)cc2)CC1 [cpd 140, 2-{(S)-1-[4-(4-Acryloyl-piperazin-1-ylmethyl)-phenyl]-ethylamino}-8-(3-hydroxy-2,2-dimethyl-propyl)-8H-pyrido [2,3-d]pyrimidin-7-one] | 6.94 | 6.60 | 6.97 | 8.00 | 5.49 | 5.31 |
| C[C@H](Nc1ncc2ccc(=O)n(CC(C)(C)C)c2n1)c1ccc(CN2CCC(F)(F)CC2)cc1 [cpd 105, 2-{[(1S)-1-{4-[(4,4-difluoropiperidin-1-yl)methyl]phenyl)ethyl]amino)-8-(2,2-dimethylpropyl)pyrido[2,3-d]pyrimidin-7(8H)-one] | 7.26 | 6.98 | 6.94 | 6.38 | 5.33 | 5.69 |
| C=CC(=O)N1CCN(C(CC2CC2)c2ccc([C@H](C)Nc3ncc4ccc(=O)n(CC)c4n3)cc2)CC1 (stereo partly drawn) [cpd 219, 2-{[(1S)-1-{4-[1-(4-acryloylpiperazin-1-yl)-2-cyclopropylethyl]phenyl}ethyl]amino}-8-ethylpyrido[2,3-d]pyrimidin-7(8H)-one] | 9.00 | 9.00 | 9.40 | 9.40 | 8.22 | 7.28 |
| CC(C)[C@H](C)n1c(=O)ccc2cnc(N[C@@H](C)c3ccc(CN4CCC(F)(F)CC4)c(F)c3)nc21 [cpd 67, 2-{[(1S)-1-{4-[(4,4-difluoropiperidin-1-yl)methyl]-3-fluorophenyl}ethyl]amino}-8-[(2S)-3-methylbutan-2-yl]pyrido[2,3-d]pyrimidin-7(8H)-one] | 7.82 | 7.43 | 7.17 | 6.70 | 5.13 | 5.77 |
| C=CC(=O)N1CCN(Cc2ccc([C@H](C)Nc3ncc4ccc(=O)n(CC(C)(C)C)c4n3)cc2)CC1 [cpd 139, 2-{(S)-1-[4-(4-Acryloyl-piperazin-1-ylmethyl)-phenyl]-ethylamino}-8-(2,2-dimethyl-propyl)-8H-pyrido[2,3-d]pyrimidin-7-one] | 7.68 | 7.38 | 7.66 | 8.10 | 6.58 | 6.14 |
| C[C@H](Nc1ncc2ccc(=O)n(CC(C)(C)C)c2n1)c1ccc(CN2CCC(F)(F)CC2)c(F)c1 [cpd 94, 2-{[(1S)-1-{4-[(4,4-difluoropiperidin-1-yl)methyl]-3-fluorophenyl}ethyl]amino}-8-(2,2-dimethylpropyl) pyrido[2,3-d]pyrimidin-7(8H)-one] | 7.52 | 7.15 | 6.69 | 6.43 | 5.25 | 5.88 |
| C=CC(=O)N1CCN(C(CC2CC2)c2ccc([C@H](C)Nc3ncc4ccc(=O)n(C(C)C)c4n3)cc2)CC1 (stereo partly drawn) [cpd 220, 2-{[(1S)-1-{4-[1-(4-acryloylpiperazin-1-yl)-2-cyclopropylethyl]phenyl}ethyl]amino}-8-(propan-2-yl)pyrido[2,3-d]pyrimidin-7(8H)-one] | 9.00 | 9.00 | 9.52 | 9.30 | 7.82 | 7.28 |
| C=CC(=O)N1CCC(Oc2ccc([C@H](C)Nc3ncc4ccc(=O)n(CC(C)(C)C)c4n3)cc2)CC1 [cpd 156, 2-{(S)-1-[4-(1-Acryloyl-piperidin-4-yloxy)-phenyl]-ethylamino}-8-(2,2-dimethyl-propyl)-8H-pyrido[2,3-d]pyrimidin-7-one] | 7.04 | 6.86 |  | 6.54 | 6.32 | 5.60 |
